“Also recorded” adds a separate entry of the source.
Tests used:
HUVECs = test: Proliferation of normal HUVECs (comparison with U251); type: cell-based, human; conditions: 10 μM HET0016, 48 hrs; DDMS concentration not given
Experimental: (§1) Mean values±SD from three separate experiments, each performed in triplicate, are presented. *** indicates p<0.001 from the respective control values.
(§2) Cell Proliferation Assays: Proliferation studies were performed with cultures plated at a density that ensured exponential growth for at least 5 days. Growth medium was generally replaced by serum-free medium 24 hr after plating. Cells were treated with various concentrations of a given compounds for 24 or 48 hr as described in the Methods. […] Organic solvent never exceeded 0.1% of total culture volume. Cells were harvested by exposure to 0.05% trypsin/EDTA and counted using a hemocytometer.

[1] = system: primary human keratinocytes; test: Proliferation of primary human keratinocytes (comparison with U251); type: cell-based; conditions: 10 μM HET0016, 48 hrs; DDMS concentration not given
Experimental: as §1, §2

CYP4A = conditions: read-out: IC50 for inhibition of CYP4A enzyme activity; cited from earlier work
9L rat gliosarcoma cells = test: 9L cell proliferation assay (cell counting); type: cell-based
Experimental: (§3) Culture Conditions: 9L rat gliosarcoma cells were purchased from ATC (Gaithersburg, Md.) and were maintained in DMEM (Invitrogen) supplemented with 10% heat-inactivated fetal bovine serum (FBS), penicillin (10 IU/ml), streptomycin (10 μg/ml) and 10% non-essential amino acids (all purchased from Invitrogen). Cells were maintained at 37° C. in a humidified incubator containing 5% CO2. They were grown in medium containing 10% FBS, which was then replaced with serum-free medium (give type and source) where 9L cells grow exponentially.
Cell Proliferation Assays: Proliferation studies were performed with cultures plated at a density that ensured exponential growth for at least 5 days. Growth medium were generally replaced by serum free medium 24 hr after plating. […] The concentration of the ethanol added to the media never exceeded 0.1%. Cells were harvested by exposure to a solution of 0.05% Trypsin/EDTA and counted using a hemocytometer.

rat cornea = test: Rat cornea pocket angiogenesis assay (growth factor pellets); type: in vivo
Experimental: (i) Preparation of sustained-release polymer: Sustained-release polymer pellets were prepared by making a 1:1 mix of a 12% solution in ethanol of the polymer (Hydron polyhydroxyethylmethacrylate), with saline containing the growth factors. The growth factors bFGF, VEGF, and EGF were dissolved at a concentration of 125 ng/μl. […] 2 μl of these solutions were added to each pellet. Thus, a pellet containing 250 ng of a single growth factor was implanted at random in the right or left eye. The other eye was implanted with a pellet containing the same dose of growth factor+HET0016. In some rats the pellet contained VEGF alone and VEGF+DDMS. 20 μg of the stable 20-HETE agonist analog WIT003 was implanted in one eye to determine whether it induces angiogenesis. […] 9 μl of the 1:1 Hydron/treatment mixture was placed on the ends of 1.5-cm rods. Each pellet contained 250 ng of its respective growth factor. For bFGF we used sucralfate to stabilize and allow sustained release of this growth factor (Volkin D B et al., Biochim Biophys Acta 1993, 1203:18-26). After drying the pellets for 1 hour, they were ready to be implanted into the cornea of rats.
(ii) Pellet implantation: The rats were anesthetized IM with ketamine (80 mg/kg) and xylazine (10 mg/kg). The eyes were topically anesthetized with 0.5% proparacaine (Ophthetic, Alcon, Tex.) and the globes proptosed with a jeweler's forceps. Using an operating microscope, a central intrastromal linear keratotomy, approximately 1.5 mm in length, was performed with a surgical blade (Bard-Parker #11; Becton Dickinson, Franklin Lake, N.Y.) parallel to the insertion of the lateral rectus muscle. A curved iris spatula (No. 10093-13, Fine Science Tools, Belmont, Calif.) approximately 1.5 mm wide and 5 mm long was inserted under the lip of the incision and gently pushed through the stroma toward the temporal limbus of the eye. The distance between the limbus and the base of the pocket was kept at 1.0±0.1 mm. The pellet was advanced to the temporal end of the pocket. Antibiotic ointment (erythromycin) was applied to the anterior surface of the eye.
(iv) Quantitation of corneal neovascularization: Seven days after pellet implantation, the rats were deeply anesthetized as previously described with ketamine and xylazine. The left ventricle was cannulated and the animal was perfused with 20-25 ml saline through the left ventricle followed by 20-25 ml India ink (waterproof drawing ink, Sanford, Bellwood, Ill.). The eyes were marked for orientation, enucleated and placed in 4% formalin for 24 hours. The cornea was dissected free from the surrounding globe and underlying iris, bisected, and loosely mounted between two glass slides, thus gently flattening the cornea. These flat mounts were examined microscopically using a Nikon Diaphot Epi-fluor 2 microscope attached to a CCD video camera and the images were digitized and saved using a computer.
Neovascularization was determined by comparing total vessel length in the control and experimental eyes. Vessel length was determined by tracing each vessel from the limbus to the pellet. Total length is the sum of these values in pixels and was determined using conventional image analysis software (Sigma Scan Pro, SPSS, Chicago, Ill.)

CYP4A11 mRNA = test: RT-PCR of CYP4A11 mRNA in U251 cultures; type: cell-based, human; conditions: 100 μM DDMS
Experimental: EtOH-treated cultures were used as solvent controls. Briefly, total RNA was isolated with Trizol reagent (Invitrogen) and 1-2 μg RNA was used to synthesize cDNA using a First Strand synthesis kit (Invitrogen). We used PCR primers that specifically recognize CYP4A11, and β-actin-specific primers. A 1 μCi ^32P per sample was added to Platinum PCR Supermix (Invitrogen). The PCR conditions used to amplify CYP4A 11 and β-actin consisted of a precycle of 95° C for 3 min followed by 35 cycles of 95° C for 45 s, 52° C. for 30 s, and 72° C. for 2 min, with final extension at 72° C. for 10 min. The primers used were: β-actin forward primer, 5′-TGCGTGACATTAAGGAGAAG-3′ (SEQ ID NO:3); β-actin reverse primer, 5′-GCT CGT AGC TCT TCT CCA-3′ (SEQ ID NO:4); CYP4A11 forward primer, 5′-CCACCTGGACCAGAGGCCCTACACCACC-3′ (SEQ ID NO:5); CYP4A11 reverse primer, 5′-AGGATATGGGCAGACAGGAA-3′(SEQ ID NO:6). PCR products were subjected to electrophoresis in 5% bis-acrylamide gels and visualized by autoradiography.

U251 human glioma cells = test: U251 cell proliferation assay (cell counting); type: cell-based
Experimental: as §3, with “Cells” for “9L rat gliosarcoma cells”, “routinely” for “purchased from ATC (Gaithersburg, Md.) and were”, “medium” for “medium (give type and source)”, “U251” for “9L”, “exponentially. Treatments were initiated one day after serum removal.” for “exponentially.”
as §2

SMILES: CS(=O)(=O)NC(=O)CCCCCCCCCC=C(Br)Br [DDMS, dibromododecenyl methylsulfonimide]
- effect on basal growth or proliferation of normal HUVECs (HUVECs): Neither DDMS or HET0016 had any effect
- effect on basal growth or proliferation of primary human keratinocytes [1]: Neither DDMS or HET0016 had any effect
- IC50 (CYP4A): ~10 µM
- effect on 9L cell number (9L rat gliosarcoma cells; DDMS 10 μM): significant reduction in cell number
- inhibition of 9L cell proliferation (9L rat gliosarcoma cells; DDMS, concentration not given): 60%
- angiogenic response to inhibitor alone (rat cornea; 20 μg HET0016 or 10 μg DDMS per pellet, no growth factor): Neither HET0016 nor DDMS alone elicited a response different from saline
- effect on the angiogenic response to VEGF (rat cornea; VEGF 250 ng/pellet + 10 μg DDMS): as effective as 20 μg HET0016; also recorded: completely inhibits the angiogenic response; also recorded: abolished; also recorded: inhibit angiogenic responses to VEGF
- CYP4A11 transcript levels (CYP4A11 mRNA): not affected
- blockade of U251 cell proliferation (U251 human glioma cells; DDMS, concentration not given): about 60%
- concentration dependence of inhibition of U251 proliferation (U251 human glioma cells; various concentrations): inhibited the proliferation of U251 cancer cells in a dose-dependent manner; also recorded: inhibited the proliferation of U251 cells in a concentration dependent manner

From US20050124618A1, “Methods of modulating angiogenesis and cancer cell proliferation” (priority 2003, published 2005)
